Tests used:
KAI3 (IL-2 2.5 ng/mL) [1] = experiment: percent inhibition of viability; higher = more inhibition; details: 72 h
[2] = system: normal primary NK cells, pool 1 (3 donors), resting (IL-2 0 ng/mL); experiment: as above; details: 72 h
SNK-6 (IL-2 2.5 ng/mL) [3] = experiment: as above; details: 72 h
IMC-1 (IL-2 20 ng/mL) [4] = experiment: as above; details: 72 h
NK-YS (IL-2 2.5 ng/mL) [5] = experiment: as above; details: 72 h
NKL (IL-2 2.5 ng/mL) [6] = experiment: as above; details: 72 h
NK-92 (IL-2 2.5 ng/mL) [7] = experiment: as above; details: 72 h
[8] = system: normal primary NK cells, pool 3 (3 donors) (IL-2 2.5 ng/mL); experiment: as above; details: 72 h
YT (IL-2 2.5 ng/mL) [9] = experiment: as above; details: 72 h
[10] = system: normal primary NK cells, pool 1 (3 donors) (IL-2 2.5 ng/mL); experiment: as above; details: 72 h
DERL-7 (IL-2 2.5 ng/mL) [11] = experiment: as above; details: 72 h
KHYG-1 (IL-2 2.5 ng/mL) [12] = experiment: as above; details: 72 h
[13] = system: normal primary NK cells, pool 2 (3 donors) (IL-2 2.5 ng/mL); experiment: as above; details: 72 h
[14] = system: normal NK cells expanded with K562-aAPC; experiment: as above; details: 72 h, IL-2 2.5 ng/mL
Description: (§1)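 Drug sensitivity and resistance testing on K562-aAPC-expanded normal NK cells: 5 concentrations (10-fold steps over a 10,000-fold range), 72 h at 37 °C, viability by CellTiter-Glo normalised to DMSO and benzethonium chloride controls; DSS from the fitted curve.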

KAI3 (IL-2 2.5 ng/mL) [15] = experiment: drug sensitivity score (DSS) (DSS units); higher = more sensitive; extreme values may be limits of the assay; details: 72 h
[16] = system: normal primary NK cells, pool 1 (3 donors), resting (IL-2 0 ng/mL); experiment: as above; details: 72 h
SNK-6 (IL-2 2.5 ng/mL) [17] = experiment: as above; details: 72 h
IMC-1 (IL-2 20 ng/mL) [18] = experiment: as above; details: 72 h
NK-YS (IL-2 2.5 ng/mL) [19] = experiment: as above; details: 72 h
NKL (IL-2 2.5 ng/mL) [20] = experiment: as above; details: 72 h
NK-92 (IL-2 2.5 ng/mL) [21] = experiment: as above; details: 72 h
[22] = system: normal primary NK cells, pool 3 (3 donors) (IL-2 2.5 ng/mL); experiment: as above; details: 72 h
YT (IL-2 2.5 ng/mL) [23] = experiment: as above; details: 72 h
[24] = system: normal primary NK cells, pool 1 (3 donors) (IL-2 2.5 ng/mL); experiment: as above; details: 72 h
DERL-7 (IL-2 2.5 ng/mL) [25] = experiment: as above; details: 72 h
KHYG-1 (IL-2 2.5 ng/mL) [26] = experiment: as above; details: 72 h
[27] = system: normal primary NK cells, pool 2 (3 donors) (IL-2 2.5 ng/mL); experiment: as above; details: 72 h
[28] = system: normal NK cells expanded with K562-aAPC; experiment: as above; details: 72 h; IL-2 2.5 ng/mL
Description: as §1

CC(C)C[C@H](NC(=O)[C@H](Cc1ccccc1)NC(=O)c1cnccn1)B(O)O [Bortezomib] (max concentration tested 1000 nM)
percent inhibition of viability [%]
Details	0.1 nM	1 nM	10 nM	100 nM	1000 nM
DERL-7 (IL-2 2.5 ng/mL) [11]	-10.9	21.2	101	101	100
IMC-1 (IL-2 20 ng/mL) [4]	-1.29	-3.94	101	101	101
KAI3 (IL-2 2.5 ng/mL) [1]	-14.4	-0.34	102	105	97
KHYG-1 (IL-2 2.5 ng/mL) [12]	-3.11	-0.47	105	108	100
NK-92 (IL-2 2.5 ng/mL) [7]	-4.96	-5.77	102	107	98.3
NK-YS (IL-2 2.5 ng/mL) [5]	-5.54	-1.32	104	106	98.5
NKL (IL-2 2.5 ng/mL) [6]	-12.9	-8.26	105	107	98.5
SNK-6 (IL-2 2.5 ng/mL) [3]	21.6	12.7	98.5	101	100
YT (IL-2 2.5 ng/mL) [9]	-2.41	0.1	103	107	101
[2]	-34.8	-55	91.9	94.3	94
[8]	-3.11	-8.2	98.5	98.7	99.1
[10]	-11.7	-7.66	97.5	98.1	98.4
[13]	-2.25	0.14	94.5	95.3	96.2
[14]	-2.23	4.9	100	101	100

Details	drug sensitivity score
DERL-7 (IL-2 2.5 ng/mL) [25]	33.9
IMC-1 (IL-2 20 ng/mL) [18]	30.2
KAI3 (IL-2 2.5 ng/mL) [15]	30.6
KHYG-1 (IL-2 2.5 ng/mL) [26]	30.9
NK-92 (IL-2 2.5 ng/mL) [21]	30.2
NK-YS (IL-2 2.5 ng/mL) [19]	30.7
NKL (IL-2 2.5 ng/mL) [20]	30.3
SNK-6 (IL-2 2.5 ng/mL) [17]	32.6
YT (IL-2 2.5 ng/mL) [23]	30.8
[16]	26.8
[22]	29.5
[24]	29.3
[27]	29.2
[28]	31.2

From the supplement of paper PMC5908809
